# Test results reported in PubChem BioAssay (NCI).
#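 Where inhibition never reached the appropriate level, the endpoint shown equals the highest concentration tested. Otherwise, values were interpolated linearly from a five-concentration, 48-hour dose response in 96-well plates. The concentration for full growth arrest is given as TGI.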
# What was measured:
# Assay in all cases: NCI-60 cell line screen, 48 h
# LOX IMVI melanoma = tested on: LOX IMVI melanoma
# HCC-2998 colon = tested on: HCC-2998 colon
# MDA-MB-435 = tested on: MDA-MB-435
# SK-MEL-2 melanoma = tested on: SK-MEL-2 melanoma
# HL-60(TB) leukemia = tested on: HL-60(TB) leukemia
# SF-539 CNS = tested on: SF-539 CNS
# RXF 393 renal = tested on: RXF 393 renal
# MALME-3M melanoma = tested on: MALME-3M melanoma
# KM12 colon = tested on: KM12 colon
# COLO 205 colon = tested on: COLO 205 colon
# NCI-H460 lung = tested on: NCI-H460 lung
# CAKI-1 renal = tested on: CAKI-1 renal
# EKVX NSCLC = tested on: EKVX NSCLC
# IGROV1 ovarian = tested on: IGROV1 ovarian
# CCRF-CEM leukemia = tested on: CCRF-CEM leukemia
# SNB-19 CNS = tested on: SNB-19 CNS
# SK-OV-3 ovarian = tested on: SK-OV-3 ovarian
# A498 renal = tested on: A498 renal
# U251 CNS = tested on: U251 CNS
# OVCAR-4 ovarian = tested on: OVCAR-4 ovarian
# SF-295 CNS = tested on: SF-295 CNS
# HCT-116 colon = tested on: HCT-116 colon
# A549 NSCLC = tested on: A549 NSCLC
# SN12C renal = tested on: SN12C renal
# PC-3 prostate = tested on: PC-3 prostate
# SR leukemia = tested on: SR leukemia
# MCF7 breast = tested on: MCF7 breast
# HCT-15 colon = tested on: HCT-15 colon
# HOP-92 NSCLC = tested on: HOP-92 NSCLC
# ACHN renal = tested on: ACHN renal
# OVCAR-8 ovarian = tested on: OVCAR-8 ovarian
# HOP-62 NSCLC = tested on: HOP-62 NSCLC
# SK-MEL-5 melanoma = tested on: SK-MEL-5 melanoma
# UO-31 renal = tested on: UO-31 renal
# DU-145 prostate = tested on: DU-145 prostate
# UACC-62 melanoma = tested on: UACC-62 melanoma
# NCI-H226 lung = tested on: NCI-H226 lung
# NCI-H23 lung = tested on: NCI-H23 lung
# M14 melanoma = tested on: M14 melanoma
# SW-620 colon = tested on: SW-620 colon
# SF-268 CNS = tested on: SF-268 CNS
# MDA-MB-231 breast = tested on: MDA-MB-231 breast
# HT29 colon = tested on: HT29 colon
# OVCAR-3 ovarian = tested on: OVCAR-3 ovarian
# UACC-257 melanoma = tested on: UACC-257 melanoma
# T-47D breast = tested on: T-47D breast
# BT-549 breast = tested on: BT-549 breast
# RPMI-8226 leukemia = tested on: RPMI-8226 leukemia
# SK-MEL-28 melanoma = tested on: SK-MEL-28 melanoma
# 786-0 renal = tested on: 786-0 renal
# TK-10 renal = tested on: TK-10 renal
# K-562 leukemia = tested on: K-562 leukemia
# NCI/ADR-RES ovarian = tested on: NCI/ADR-RES ovarian
# HS 578T breast = tested on: HS 578T breast
# MOLT-4 leukemia = tested on: MOLT-4 leukemia
# NCI-H522 lung = tested on: NCI-H522 lung
# MDA-N = tested on: MDA-N
# OVCAR-5 ovarian = tested on: OVCAR-5 ovarian
# SNB-75 CNS = tested on: SNB-75 CNS
smiles,measurement,setting,value
COc1ccc(/C=C2\CN(C)CC3C2=NC(=S)NC3c2ccc(OC)cc2)cc1 (centres undefined),TGI,LOX IMVI melanoma,> 100 µM
same,TGI,HCC-2998 colon,> 100 µM
same,TGI,MDA-MB-435,7.86 µM
same,TGI,SK-MEL-2 melanoma,> 64.8 µM
same,TGI,HL-60(TB) leukemia,14.8 µM
same,TGI,SF-539 CNS,59.5 µM
same,TGI,RXF 393 renal,7.49 µM
same,TGI,MALME-3M melanoma,> 31.4 µM
same,TGI,KM12 colon,> 65.8 µM
same,TGI,COLO 205 colon,> 39.3 µM
same,TGI,NCI-H460 lung,59.8 µM
same,TGI,CAKI-1 renal,> 100 µM
same,TGI,EKVX NSCLC,> 100 µM
same,TGI,IGROV1 ovarian,> 22.6 µM
same,TGI,CCRF-CEM leukemia,> 24.7 µM
same,TGI,SNB-19 CNS,> 100 µM
same,TGI,SK-OV-3 ovarian,> 100 µM
same,TGI,A498 renal,26.3 µM
same,TGI,U251 CNS,> 52.6 µM
same,TGI,OVCAR-4 ovarian,> 70.8 µM
same,TGI,SF-295 CNS,> 75.8 µM
same,TGI,HCT-116 colon,> 44.7 µM
same,TGI,A549 NSCLC,> 100 µM
same,TGI,SN12C renal,> 100 µM
same,TGI,PC-3 prostate,> 50 µM
same,TGI,SR leukemia,> 100 µM
same,TGI,MCF7 breast,> 100 µM
same,TGI,HCT-15 colon,> 100 µM
same,TGI,HOP-92 NSCLC,94.3 µM
same,TGI,ACHN renal,> 100 µM
same,TGI,OVCAR-8 ovarian,> 100 µM
same,TGI,HOP-62 NSCLC,> 100 µM
same,TGI,SK-MEL-5 melanoma,> 100 µM
same,TGI,UO-31 renal,> 100 µM
same,TGI,DU-145 prostate,26.4 µM
same,TGI,UACC-62 melanoma,> 100 µM
same,TGI,NCI-H226 lung,> 100 µM
same,TGI,NCI-H23 lung,> 94.1 µM
same,TGI,M14 melanoma,15.8 µM
same,TGI,SW-620 colon,> 100 µM
same,TGI,SF-268 CNS,> 100 µM
same,TGI,MDA-MB-231 breast,> 59.1 µM
same,TGI,HT29 colon,83.1 µM
same,TGI,OVCAR-3 ovarian,10.3 µM
same,TGI,UACC-257 melanoma,> 100 µM
same,TGI,T-47D breast,> 29.9 µM
same,TGI,BT-549 breast,> 100 µM
same,TGI,RPMI-8226 leukemia,> 24.7 µM
same,TGI,SK-MEL-28 melanoma,> 100 µM
same,TGI,786-0 renal,> 68.5 µM
same,TGI,TK-10 renal,> 100 µM
same,TGI,K-562 leukemia,> 100 µM
same,TGI,NCI/ADR-RES ovarian,19.1 µM
same,TGI,HS 578T breast,> 100 µM
same,TGI,MOLT-4 leukemia,> 81.1 µM
same,TGI,NCI-H522 lung,> 20.8 µM
same,TGI,MDA-N,3.74 µM
same,TGI,OVCAR-5 ovarian,> 86 µM
O=C(CN1C(=O)c2ccccc2C1=O)C(O)CN1C(=O)c2ccccc2C1=O (centres undefined),TGI,LOX IMVI melanoma,> 100 µM
same,TGI,HCC-2998 colon,> 100 µM
same,TGI,MDA-MB-435,> 100 µM
same,TGI,SK-MEL-2 melanoma,> 100 µM
same,TGI,HL-60(TB) leukemia,> 100 µM
same,TGI,SF-539 CNS,> 100 µM
same,TGI,RXF 393 renal,> 100 µM
same,TGI,KM12 colon,> 100 µM
same,TGI,COLO 205 colon,> 100 µM
same,TGI,NCI-H460 lung,> 100 µM
same,TGI,CAKI-1 renal,> 100 µM
same,TGI,EKVX NSCLC,> 100 µM
same,TGI,IGROV1 ovarian,> 100 µM
same,TGI,SNB-19 CNS,> 100 µM
same,TGI,SK-OV-3 ovarian,> 100 µM
same,TGI,A498 renal,> 100 µM
same,TGI,U251 CNS,91.5 µM
same,TGI,OVCAR-4 ovarian,> 100 µM
same,TGI,SF-295 CNS,99.8 µM
same,TGI,HCT-116 colon,> 100 µM
same,TGI,A549 NSCLC,> 100 µM
same,TGI,SN12C renal,> 100 µM
same,TGI,PC-3 prostate,> 100 µM
same,TGI,SR leukemia,> 100 µM
same,TGI,MCF7 breast,> 100 µM
same,TGI,HCT-15 colon,> 100 µM
same,TGI,HOP-92 NSCLC,> 100 µM
same,TGI,ACHN renal,49.3 µM
same,TGI,OVCAR-8 ovarian,> 100 µM
same,TGI,HOP-62 NSCLC,41.9 µM
same,TGI,SK-MEL-5 melanoma,> 100 µM
same,TGI,UO-31 renal,> 100 µM
same,TGI,DU-145 prostate,> 100 µM
same,TGI,UACC-62 melanoma,> 100 µM
same,TGI,NCI-H226 lung,> 100 µM
same,TGI,NCI-H23 lung,> 100 µM
same,TGI,M14 melanoma,> 100 µM
same,TGI,SW-620 colon,> 100 µM
same,TGI,SF-268 CNS,88.1 µM
same,TGI,MDA-MB-231 breast,50.5 µM
same,TGI,HT29 colon,> 100 µM
same,TGI,SNB-75 CNS,39.8 µM
same,TGI,OVCAR-3 ovarian,> 100 µM
same,TGI,UACC-257 melanoma,> 100 µM
same,TGI,T-47D breast,> 100 µM
same,TGI,BT-549 breast,> 100 µM
same,TGI,RPMI-8226 leukemia,> 100 µM
same,TGI,SK-MEL-28 melanoma,> 100 µM
same,TGI,786-0 renal,> 100 µM
same,TGI,TK-10 renal,> 100 µM
same,TGI,NCI/ADR-RES ovarian,> 100 µM
same,TGI,HS 578T breast,> 100 µM
same,TGI,MOLT-4 leukemia,> 100 µM
same,TGI,NCI-H522 lung,> 100 µM
same,TGI,MDA-N,> 100 µM
same,TGI,OVCAR-5 ovarian,> 100 µM
